Where two headings read alike, the source gives them in different places.
Experiments:
AsPC-1 = experiment: Cell growth inhibition assay (AsPC-1); format: cell-based; conditions: AsPC-1, 6 days incubation, CellTiter-Glo
Procedure: (§1) 4. Cell Growth Inhibition Assay
AsPC-1 cultured in RPMI-1640 medium (Gibco) containing 10% fetal bovine serum (Gibco). Cells in culture medium were plated in 96-well plates at a concentration of 1000 cells/well ([…]) and allowed to attach overnight.
(§2) The next day, compounds were diluted in culture medium and added to the plates. After 6 days incubation in a 37° C./5% CO2 cell incubator, the cell viability was detected by CellTiter-Glo® Luminescent Cell Viability Assay kit (Promega). Luminescent signals were read on Tecan Spark multimode microplate reader and analyzed using a 4-parameter logistic model to calculate IC50 values.

[1] = tested on: AGS cells expressing KRAS G12D; experiment: Phospho-ERK1/2(THR202/TYR204) HTRF assay; format: cell-based; conditions: 2 hours incubation, read-out: AGS p-ERK IC50
Procedure: AGS cells expressing KRAS G12D were cultured in F12K medium (Gibco) containing 10% fetal bovine serum (Gibco). The AGS cells in culture medium were seeded in 96-well plates at a concentration of 40,000 cells/well and then put in a 37° C./5% CO2 cell incubator to incubate overnight. The next day, culture medium was removed and the compound diluted in assay medium (F12K, 0.1% FBS) was added in each well. After 2 hours incubation in a 37° C./5% CO2 cell incubator, the assay medium in 96-well plates was removed, then 50 μL of 1× blocking reagent-supplemented lysis buffer (Cisbio) was added and the plates were incubated at 25° C. for 45 min with shaking. 10 μL of cell lysates from the 96-well plates were transferred to a 384-well plate (Greiner) containing 2.5 μL/well HTRF® pre-mixed antibodies (Cisbio 64AERPEH). Incubate 4 hours at 25° C. and then read HTRF signals on Tecan Spark multimode microplate reader. The data were analyzed using a 4-parameter logistic model to calculate IC50 values.

[2] = target: T1, GppNp-loaded HIS-KRAS (G12D, aa 1-169) / cRAF RBD (Homo sapiens, UniProt P01116, G12D); experiment: GTP-KRAS and cRAF interaction assay; format: binding; conditions: HTRF, 2 hours at 25° C.
T1 construct: GppNp-loaded HIS-KRAS (G12D, aa 1-169)
Procedure: 2. GTP-KRAS and cRAF Interaction Assay
GppNp-loaded HIS-KRAS (G12D, aa 1-169) was pre-incubated with a compound in the presence of 200 µM GTP in a 384-well plate (Greiner) for 15 min, then cRAF RBD (GST tag, aa 50-132, CreativeBioMart), MAb Anti GST-d2 (Cisbio) and MAb Anti 6HIS-Tb cryptate Gold (Cisbio) were added to the assay wells (Final concentration: 2.0 nM GppNp-loaded HIS-KRAS (G12D), 100 μM GTP, 35 nM cRAF RBD, 1 μg/mL MAb Anti GST-d2, 52.5 ng/mL MAb Anti 6HIS-Tb cryptate Gold) and incubated for 2 hours at 25° C. Wells containing same percent of DMSO served as vehicle control, and wells without KRAS served as low control. HTRF signals were read on Tecan Spark multimode microplate reader and HTRF ratios were calculated under manufacturer's instructions. The percent of activation of compounds treated wells were normalized between vehicle control and low control (% Activation=(HTRF ratioCompound treated−HTRF ratioLow control)/(HTRF ratioVehicle control−HTRF ratioLow control)*100). Then the data were analyzed either by fitting a 4-parameter logistic model or by Excel to calculate IC50 values.

AGS = experiment: Cell growth inhibition assay (AGS); format: cell-based; conditions: 6 days incubation, CellTiter-Glo
Procedure: as §1
AGS cultured in F12K medium (Gibco) containing 10% fetal bovine serum (Gibco). Cells in culture medium were plated in 96-well plates at a concentration of 500 cells/well ([…]) and allowed to attach overnight.
as §2

[3] = target: T2, GDP-loaded HIS-KRAS (G12D, aa 1-169) (Homo sapiens, UniProt P01116, G12D); experiment: SOS1 catalyzed nucleotide exchange assay; format: biochemical; conditions: SOS1 ExD, TR-FRET, 4 hours at 25° C.
T2 construct: GDP-loaded HIS-KRAS (G12D, aa 1-169)
Procedure: 1. SOS1 Catalyzed Nucleotide Exchange Assay
GDP-loaded HIS-KRAS (G12D, aa 1-169) was pre-incubated with a compound in the presence of 10 nM GDP in a 384-well plate (Greiner) for 15 min, then purified SOS1 ExD (Flag tag, aa 564-1049), BODIPY™ FL GTP (Invitrogen) and MAb (monoclonal antibody) Anti 6HIS-Tb cryptate Gold (Cisbio) were added to the assay wells (Final concentration: 1.5 nM GDP-loaded HIS-KRAS (G12D), 5 nM GDP, 0.5 μM SOS1 ExD, 80 nM BODIPY™ FL GTP, 52.5 ng/mL MAb Anti 6HIS-Tb cryptate Gold) and incubated for 4 hours at 25° C. Wells containing same percent of DMSO served as vehicle control, and wells without KRAS served as low control. TR-FRET signals were read on Tecan Spark multimode microplate reader. The parameters were F486: Excitation 340 nm, Emission 486 nm, Lag time 100 μs, Integration time 200 μs; F515: Excitation 340 nm, Emission 515 nm, Lag time 100 μs, Integration time 200 μs. TR-FRET ratios for each individual wells were calculated by equation: TR-FRET ratio=(Signal F515/Signal F486)*10000. The percent of activation of compounds treated wells were normalized between vehicle control and low control (% Activation=(TR-FRET ratioCompound treated−TR-FRET ratioLow control)/(TR-FRET ratioVehicle control−TR-FRET ratioLow control)*100%). Then the data were analyzed either by fitting a 4-parameter logistic model or by Excel to calculate IC50 values.

T1 sequence (P01116 1-169 isoform P01116-2 G12D): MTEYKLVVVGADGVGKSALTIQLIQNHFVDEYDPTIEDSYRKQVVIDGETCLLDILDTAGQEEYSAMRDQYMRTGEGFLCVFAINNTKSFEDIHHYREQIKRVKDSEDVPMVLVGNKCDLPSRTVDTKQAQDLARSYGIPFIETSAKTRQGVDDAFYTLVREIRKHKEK
T2 sequence (P01116 1-169 isoform P01116-2 G12D): as above

| SMILES | IC50 (AsPC-1; Homo sapiens, ASPC1, 144 h) | IC50 ([1]; Homo sapiens) | IC50 [2] | IC50 (AGS; Homo sapiens, 144 h) | IC50 [3] | IC50 (AsPC-1) | IC50 [1] | IC50 (AGS) |
| --- | --- | --- | --- | --- | --- | --- | --- | --- |
| C#Cc1cccc2cc(O)cc(-c3c(CCC#N)cc4c(N5CC6CCC(C5)N6)nc(OCC5(CN6CCOCC6)CC5)nc4c3F)c12 [Compound 44] | 185 nM | 3.81 nM | 18.2 nM | 13.2 nM | 2.14 nM |  |  |  |
| CCc1cccc2cc(O)cc(-c3ccc4c(N5CC6CCC(C5)N6)nc(OCC5(CN6CCOCC6)CC5)nc4c3F)c12 [Compound 47] | 76.3 nM | 29.6 nM | 262 nM | 68 nM | 7.21 nM |  |  |  |
| C#Cc1c(F)ccc2cc(O)cc(-c3ccc4c(N5CC6CCC(C5)N6)nc(OCC5(CN6CCOCC6)CC5)nc4c3F)c12 [Compound 48] | 19.9 nM | 0.794 nM | 17.7 nM | 1.14 nM | 7.14 nM |  |  |  |
| C#Cc1cccc2cc(O)cc(-c3c(CC)cc4c(N5CC6CCC(C5)N6)nc(OCC5(CN6CCOCC6)CC5)nc4c3F)c12 [Compound 49] | 88 nM | 16.8 nM | 26.3 nM | 10.7 nM | 3.51 nM |  |  |  |
| C#Cc1cccc2cc(O)cc(-c3ccc4c(N5CC6CC(C5)N6)nc(OCC5(CN6CCOCC6)CC5)nc4c3F)c12 [Compound 55] | 649 nM | 27.5 nM | 147 nM | 76.9 nM | 11.6 nM |  |  |  |
| C#Cc1cccc2cc(O)cc(-c3cc4nc(OCC5(CN6CCOCC6)CC5)nc(N5CC6CCC(C5)N6)c4cc3Cl)c12 [Compound 57] | 399 nM | 95.8 nM | 350 nM | 124 nM | 45.8 nM |  |  |  |
| C#Cc1cccc2cc(O)cc(-c3cc4nc(OCC5(CN6CCOCC6)CC5)nc(N5CC6CCC(C5)N6)c4cc3C#N)c12 [Compound 61] | 897 nM | 32.8 nM | 284 nM | 130 nM | 23.5 nM |  |  |  |
| Cc1ccc2cc(O)cc(-c3ccc4c(N5CC6CCC(C5)N6)nc(OCC5(CN6CCOCC6)CC5)nc4c3F)c2c1 [Compound 64] |  |  | 329 nM |  | 45.4 nM | 178 nM | 61.8 nM | 73 nM |
| C#Cc1c(F)ccc2cc(O)cc(-c3ccc4c(N5CC6CCC(C5)N6)nc(OC[C@@]56CCCN5C[C@H](F)C6)nc4c3F)c12 [Compound 67] | 34.1 nM | 3.72 nM | 20.3 nM | 6.92 nM | 8.77 nM |  |  |  |
| C#Cc1cccc2cc(O)cc(-c3ccc4c(N5CC6CCC(C5)N6)nc(OCC5(CN6CCO[C@H](C)C6)CC5)nc4c3F)c12 [Compound 68] | 7.8 nM | 4.83 nM | 131 nM | 3.26 nM | 14.4 nM |  |  |  |
| C#Cc1c(F)ccc2cc(O)cc(-c3c(C4CC4)cc4c(N5CC6CCC(C5)N6)nc(OC[C@@]56CCCN5C[C@H](F)C6)nc4c3F)c12 [Compound 71] | 723 nM | 9.31 nM | 73.2 nM | 205 nM | 60 nM |  |  |  |
| C#Cc1cccc2cc(O)cc(-c3ccc4c(N5CC6CCC(C5)N6)nc(OC[C@@]56CCCN5C[C@H](F)C6)nc4c3F)c12 [Compound 73] | 42 nM | 0.757 nM | 37 nM | 7 nM | 3.02 nM |  |  |  |
| C#Cc1c(F)ccc2cc(O)cc(-c3ccc4c(N5CC6CCC(C5)N6)nc(OCC5(CN6CCCC(F)C6)CC5)nc4c3F)c12 (stereo not shown) [Compound 74] | 21.3 nM | 12.4 nM | 39.8 nM | 4.41 nM | 10 nM |  |  |  |
| C#Cc1cccc2cc(O)cc(-c3cc4nc(OC[C@@]56CCCN5C[C@H](F)C6)nc(N5CC6CCC(C5)N6)c4cc3C)c12 [Compound 75] | 62.3 nM | 14.6 nM | 84.2 nM | 5.64 nM | 9.26 nM |  |  |  |
| C#Cc1c(F)ccc2cc(O)cc(-c3ccc4c(N5CC6CCC(C5)N6)nc(OCC5(CN6CCC(O)CC6)CC5)nc4c3F)c12 [Compound 76] | 671 nM | 8.3 nM | 64.8 nM | 72.1 nM | 4.33 nM |  |  |  |
| C#Cc1c(F)ccc2cc(O)cc(-c3ccc4c(N5CC6CCC(C5)N6)nc(OCC5(CN6CCC(C(=O)O)CC6)CC5)nc4c3F)c12 [Compound 77] | > 10000 nM | 173 nM | 74.1 nM | 1180 nM | 5.11 nM |  |  |  |
| C#Cc1cccc2cc(O)cc(-c3ccc4c(N5CC6CCC(C5)N6)nc(OCC5(CN6CCSCC6)CC5)nc4c3F)c12 [Compound 78] | 30.3 nM | 31.6 nM | 99.8 nM | 4.04 nM | 8.8 nM |  |  |  |
| C#Cc1cccc2cc(O)cc(-c3cc4nc(OC[C@@]56CCCN5C[C@H](F)C6)nc(N5CC6CCC(C5)N6)c4cc3F)c12 [Compound 79] | 109 nM | 6.66 nM | 130 nM | 7.75 nM | 4.81 nM |  |  |  |
| C#Cc1cccc2cc(O)cc(-c3ccc4c(N5CC6CCC(C5)N6)nc(OCC5(CN6CCO[C@@H](C)C6)CC5)nc4c3F)c12 [Compound 80] | 24.1 nM | 3.63 nM | 69.4 nM | 5.26 nM | 3.76 nM |  |  |  |
| C#Cc1cccc2cc(O)cc(-c3ccc4c(N5CC6CCC(C5)N6)nc(OC[C@@]56CCCN5C[C@H](F)C6)nc4c3Cl)c12 [Compound 81] | 153 nM | 13.9 nM | 225 nM | 16.2 nM | 9.49 nM |  |  |  |
| C#Cc1cccc2cc(O)cc(-c3c(F)cc4c(N5CC6CCC(C5)N6)nc(OCC5(CN6CCS(=O)(=O)CC6)CC5)nc4c3F)c12 [Compound 83] | 5090 nM | 131 nM | 3150 nM | 273 nM | 18 nM |  |  |  |
| C#Cc1cccc2cc(O)cc(-c3ccc4c(N5CC6CCC(C5)N6)nc(OCC5(CN(C)CCO)CC5)nc4c3F)c12 [Compound 86] | 528 nM | 7.4 nM | 97 nM | 60.3 nM | 20.9 nM |  |  |  |
| Oc1cc(-c2ccc3c(N4CC5CCC(C4)N5)nc(OCC4(CN5CCOCC5)CC4)nc3c2F)c2c(Cl)cccc2c1 [Compound 88] | 153 nM | 35.7 nM | 148 nM | 17 nM | 16.7 nM |  |  |  |
